Results on two compounds are retold here after article PMC6273687, “Design, Synthesis and Biological Evaluation of Novel Primaquine-Cinnamic Acid Conjugates of the Amide and Acylsemicarbazide Type” (Molecules, 2016).

For series [1], the system named is MCF-7 breast carcinoma cell line. Description: Growth inhibition of tumor cell lines in vitro (MTT / cell counting). Type of series: cell-based, human. As to conditions: Homo sapiens, MCF7, 72 h; MCF-7, 3 days.
The next series deals with lung adenocarcinoma A549. Put plainly: Growth inhibition of tumor cell lines in vitro (reference drug). Type of series: cell-based. The settings on record: Homo sapiens; lung adenocarcinoma A549 (footnote c, printed in NCI-H460 column).
For series [2], the system named is HeLa cervical carcinoma cell line. Description: Growth inhibition of tumor cell lines in vitro (MTT / cell counting). It counts as cell-based. As to conditions: Homo sapiens.
Series [3] concerns SW 620 colon carcinoma cell line. Described as above. Type of series: cell-based. As to conditions: Homo sapiens, 72 h; SW 620, 3 days. Put shortly: (§1)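 Cells in DMEM/10% FBS were exposed to compounds at 10^−8 to 10^−4 M (ten-fold dilutions) for 3 days (SW 620, NCI-H460) or 4 days (CEM, L1210) at 37 °C. Growth was read by MTT absorbance at 570 nm and/or viable cell counting, and PG values were derived; quadruplicate points, at least two experiments.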

Series [4] concerns L1210 murine lymphocytic leukemia cell line. Described as above. It counts as cell-based. As to conditions: Mus musculus, 96 h; L1210, 4 days. Put shortly: as §1
The subject of series [5] is CEM acute lymphoblastic leukemia cell line. The series is described as above. Type of series: cell-based. As to conditions: Homo sapiens, 96 h, 4 days. The method, boiled down: as §1
For series [6], the system named is NCI-H460 lung carcinoma cell line. The series is described as above. The settings on record: Homo sapiens, 72 h; NCI-H460, 3 days. It counts as cell-based, human. The method, boiled down: as §1
In series [7] the target is T1, soybean lipoxygenase (LOX) (Glycine max, UniProt P08170).
T1 construct: purchased Sigma-Aldrich
T1 sequence (P08170 1-839): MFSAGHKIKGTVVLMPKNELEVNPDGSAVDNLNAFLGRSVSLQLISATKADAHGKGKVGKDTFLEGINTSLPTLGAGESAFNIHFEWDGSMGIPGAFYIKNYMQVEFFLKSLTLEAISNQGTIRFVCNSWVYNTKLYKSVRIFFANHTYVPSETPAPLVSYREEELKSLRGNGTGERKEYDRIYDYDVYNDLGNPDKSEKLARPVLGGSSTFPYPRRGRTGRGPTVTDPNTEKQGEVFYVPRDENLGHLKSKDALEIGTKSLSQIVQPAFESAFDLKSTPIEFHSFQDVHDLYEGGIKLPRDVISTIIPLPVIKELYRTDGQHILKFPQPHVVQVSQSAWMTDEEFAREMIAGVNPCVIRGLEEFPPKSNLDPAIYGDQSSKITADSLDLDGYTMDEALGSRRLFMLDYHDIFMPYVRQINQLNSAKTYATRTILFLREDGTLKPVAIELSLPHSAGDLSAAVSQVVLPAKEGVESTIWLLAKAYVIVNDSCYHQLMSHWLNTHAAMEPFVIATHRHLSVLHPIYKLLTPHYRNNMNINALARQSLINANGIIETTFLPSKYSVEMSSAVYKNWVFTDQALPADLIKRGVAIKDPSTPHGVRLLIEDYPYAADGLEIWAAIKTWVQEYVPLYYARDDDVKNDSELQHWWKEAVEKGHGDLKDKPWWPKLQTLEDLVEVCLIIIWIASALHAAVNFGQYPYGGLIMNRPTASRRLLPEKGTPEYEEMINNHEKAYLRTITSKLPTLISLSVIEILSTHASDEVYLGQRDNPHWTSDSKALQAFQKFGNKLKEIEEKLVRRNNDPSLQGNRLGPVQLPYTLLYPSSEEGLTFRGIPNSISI
Description: LOX inhibition study in vitro. Type of series: biochemical. The settings on record: values in parentheses in Table 3. As to the method: LOX inhibitory assay in vitro was accomplished as described previously. The test compounds (stock solutions 10 mM in DMSO) were incubated at room temperature with sodium linoleate (c = 0.1 mM) and 0.2 mL of LOX enzyme solution (1/9 × 10^−4 m/V in saline). The conversion of sodium linoleate to 13-hydroperoxylinoleic acid was measured at 234 nm and compared with the reference inhibitor. Several concentrations were used for the IC50 determination.

A short description of series [8]: Interaction with the stable radical DPPH (reducing ability). The procedure: To a solution of DPPH in absolute ethanol the appropriate volume of the compounds (50 or 100 µM final concentrations) dissolved in DMSO was added. The absorbance was recorded at 517 nm after 20 and 60 min at room temperature. The experiments were repeated at least in triplicate and the standard deviation of absorbance was less than 10% of the mean. NDGA was used under the same experimental conditions as a reference compound.

Series [9] can be described thus: Inhibition of linoleic acid peroxidation (AAPH-induced). As to conditions: 5 × 10^−5 M. The method, boiled down:
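Sodium linoleate (16 mM stock) in 0.05 M phosphate buffer pH 7.4 at 37 °C under air, peroxidation initiated by AAPH (40 mM stock) with test compound added. Conjugated diene formation followed at 234 nm; at least triplicate runs, Trolox as reference.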

The next series has as its system HEL cells. Put plainly: Cytotoxicity assay, alteration of HEL cell morphology (MCC). It counts as cell-based, human. The settings on record: 3 days. The procedure: Cytotoxicity measurements were based on the inhibition of HEL cell growth. Cells were seeded at 5 × 10^3 cells/well into 96-well microtiter plates. Then, medium containing different concentrations of the test compounds was added. After 3 days of incubation at 37 °C, the alteration of morphology of the cell cultures was recorded light microscopically. Cytotoxicity was expressed as MCC.

As usually defined, the IC50 is the concentration that inhibits the measured activity by half. In the case of `CNC(=O)c1cc(Oc2ccc(NC(=O)Nc3ccc(Cl)c(C(F)(F)F)c3)cc2)ccn1` [SOR, sorafenib, reference compound], the concentration for half-maximal inhibition (IC50) in [1] came out at 3.9 ± 1.6 µM; in the series with lung adenocarcinoma A549, 6.1 ± 0.6 µM; in series [2], 7.1 ± 2.6 µM; in series [3] it was 7.1 ± 1.9 µM; in series [4], 4.2 ± 2.4 µM; in series [5] it was 3.2 ± 1.7 µM.
Take `COc1cc(NC(C)CCCNC(=O)NNC(=O)/C=C/c2ccc(Cl)cc2)c2ncccc2c1` (stereo not shown) [7g, (E)-1-(3-(4-Chlorophenyl)acryloyl)-4-(4-(6-methoxyquinolin-8-ylamino)pentyl)semicarbazide]: the 50% inhibitory concentration (IC50) was determined as 0.2 ± 0.2 µM in series [1]; 20 ± 0.7 µM in series [6]; 70 µM in [7]; 2.7 ± 1.2 µM in [2]; 21 ± 4 µM in series [3]; 1.6 ± 0.7 µM in series [4]. The midpoint of inhibition in series [5], the IC50, lay at 0.9 ± 0.7 µM. Moreover, the “DPPH-reducing ability RA (%)” value was 100% in series [8] (1 × 10^−4 M, 20 min); 100% in series [8] (1 × 10^−4 M, 60 min); 66% in series [8] (5 × 10^−5 M, 20 min); 100% in series [8] (5 × 10^−5 M, 60 min). The “LP Inhibition (%)” value in series [9] was determined as 89%. Moreover, the “MCC (minimum cytotoxic concentration)” value in the series on HEL cells is reported as “around 20 μΜ”.
